In patent US20260191874A1, “FUSED AMINO PYRIMIDINE COMPOUNDS FOR TREATMENT OF AUTISM SPECTRUM DISORDER, OBSESSIVE COMPULSIVE DISORDER AND TICS” (Ovid Therapeutics Inc., priority 2024, published 2026):

Molecular target: T1, KCC2 (Homo sapiens, UniProt Q9H2X9)
T1 construct: expressed in transfected cells; host or cells: HEK-293 (ATCC CRL-1573)
T1 sequence (Q9H2X9 1-1116 isoform Q9H2X9-2): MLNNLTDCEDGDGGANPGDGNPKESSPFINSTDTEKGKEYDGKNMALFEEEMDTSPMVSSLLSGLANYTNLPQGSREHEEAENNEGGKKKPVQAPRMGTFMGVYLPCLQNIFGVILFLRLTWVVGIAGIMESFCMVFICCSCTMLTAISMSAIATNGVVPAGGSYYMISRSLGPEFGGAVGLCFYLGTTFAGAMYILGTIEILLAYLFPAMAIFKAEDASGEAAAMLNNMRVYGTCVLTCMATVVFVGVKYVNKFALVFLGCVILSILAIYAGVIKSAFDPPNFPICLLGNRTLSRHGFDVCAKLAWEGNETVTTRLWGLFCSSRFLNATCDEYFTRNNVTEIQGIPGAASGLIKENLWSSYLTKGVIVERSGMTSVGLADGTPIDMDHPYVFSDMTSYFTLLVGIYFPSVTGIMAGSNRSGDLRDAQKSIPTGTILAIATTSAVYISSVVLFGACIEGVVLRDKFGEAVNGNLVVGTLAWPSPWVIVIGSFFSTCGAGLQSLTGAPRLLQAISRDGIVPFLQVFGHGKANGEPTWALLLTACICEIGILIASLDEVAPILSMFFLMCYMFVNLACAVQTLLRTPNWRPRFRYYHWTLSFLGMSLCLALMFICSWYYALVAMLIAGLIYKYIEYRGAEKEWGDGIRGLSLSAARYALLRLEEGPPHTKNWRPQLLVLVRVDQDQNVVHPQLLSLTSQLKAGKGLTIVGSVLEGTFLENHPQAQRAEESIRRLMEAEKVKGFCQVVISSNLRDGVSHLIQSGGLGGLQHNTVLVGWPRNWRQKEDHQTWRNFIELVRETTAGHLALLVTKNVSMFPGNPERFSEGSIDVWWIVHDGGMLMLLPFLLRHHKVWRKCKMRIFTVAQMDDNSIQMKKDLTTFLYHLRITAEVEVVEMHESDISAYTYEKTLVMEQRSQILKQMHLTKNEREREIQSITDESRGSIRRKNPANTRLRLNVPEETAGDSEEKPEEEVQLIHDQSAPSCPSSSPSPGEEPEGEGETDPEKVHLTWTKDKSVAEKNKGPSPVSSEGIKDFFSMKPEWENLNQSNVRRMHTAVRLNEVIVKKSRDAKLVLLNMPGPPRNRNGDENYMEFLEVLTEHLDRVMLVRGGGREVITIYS
Assay: Cell surface biotinylation of KCC2 in HEK-293 cells
Assay type: cell-based
Settings: 15 min
Procedure: Cell Culture and biotinylation. HEK-293 cells were purchased from ATCC (CRL-1573) and transfected with human KCC2 and GFP expression plasmids using Lipofectamine 2000. Cells were utilized for experimentation 48-72 h following transfection. Cells were biotinylated at 4° C. using NHS-Biotin. Following lysis and purification on immobilized avidin beads, cell surface and total fractions were subject to immunoblotting as outlined previously (Conway et al., 2017, supra).
The reliability of the biotinylation procedure was assessed via immunoblotting with antibodies against the cytosolic protein actin. Actin was present in the total lysates but was absent from the surface fractions (FIG. 2C).

SMILES: C[C@@H]1CN(c2nc3c(c(Nc4ccc(C5CCCCC5)cc4)n2)COC3)CCO1 [Compound A, (R)—N-(4-cyclohexylphenyl)-2-(2-methylmorpholino)-5,7-dihydrofuro[3,4-d]pyrimidin-4-amine]
- level of KCC2 on the plasma membrane (surface/total) (0.3 μM): 94.5±8.4 % of control
- level of KCC2 on the plasma membrane (surface/total) (3 μM): 104.7±8.4 % of control
